Results: patent US20130337564A1, “Treatment of Pluripotent Cells” (Janssen Biotech, Inc., priority 2012, published 2013)

What was measured:
Format in all cases: cell-based
[1] = tested on: human embryonic stem cell line H9; assay: Dose titration secondary assay: cell number, H9
Experimental: (§1) It was important to confirm the activity of hits identified from primary screening and further analyze the range of activity by dose titration. New samples of a selective subset of primary screening hits were obtained as dry powders, solubilized to make fresh stock reagents, and diluted into secondary confirmation assays to evaluate effects on human embryonic stem cells.
(§2) Culture of two human embryonic stem cells (H1 and H9) was conducted as described in Example 1. Colonies of cells were maintained in an undifferentiated, pluripotent state on Matrigel™ ([…]) coated polystyrene plastic, using a 1:30 dilution of Matrigel™ in DMEM:F12 to coat the surface. Cells were split by enzymatic passage every four days on average. Passage was performed by exposing cell monolayers to a solution of collagenase (1 mg/ml; Sigma-Aldrich) for 10 to 60 minutes at 37° C. followed by gentle scraping with a pipette tip to recover cell clusters. Clusters were allowed to sediment by gravity, then washed to remove residual collagenase. Cell clusters were split at a 1:3 ratio for maintenance culture or a 1:1 ratio for subsequent assay. The human embryonic stem cell lines were maintained at less than passage 50 and routinely evaluated for normal karyotypic phenotype and absence of mycoplasma contamination.
(§3) Cell clusters of the H1 or H9 human embryonic stem cell lines used in the assay were evenly resuspended in culture medium and plated onto Matrigel™-coated 96-well Packard VIEWPLATES (PerkinElmer) in volumes of 100 μl/well. MEF conditioned medium supplemented with 8 ng/ml bFGF was used for initial plating and expansion. Daily feeding was conducted by aspirating spent culture medium from each well and replacing with an equal volume of fresh medium. Cultures were allowed to expand one to three days after plating prior to initiating assay. Plates were maintained at 37° C., 5% CO2 in a humidified box for the duration of assay.
(§4) A subset of hits resulting from primary screening was used for follow-up study and subsequent secondary assays. Twenty compounds available as dry powders were solubilized as 10 mM stocks in DMSO and stored dessicated at […] until use Immediately prior to assay, compound stocks were diluted 1:1000 to make 10 μM test compound in DMEM:F12 base medium (Invitrogen) supplemented with 0.5% FCS (HyClone) and 100 ng/ml Activin A (R&D Biosystems). This was further diluted two-fold in series to make a seven point dilution curve for each compound, also in DMEM:F12 base medium with 0.5% FCS and 100 ng/ml Activin A.
(§5) Assay was initiated by aspirating culture medium from cell monolayers in each well followed by three washes in PBS to remove residual growth factors and serum. Test volumes of 100 μl per well were added back containing medium with 0.5% FCS and different concentrations of inhibitor compounds with 100 ng/ml Activin A, without Wnt3a. Positive control wells contained the same base medium with 0.5% FCS and with 20 ng/ml Wnt3a (R&D Biosystems) in the absence of test compound. Negative control wells contained the same base medium with 0.5% FCS, in the absence of Activin A, Wnt3a, or test compound. Assay wells were aspirated and fed again with identical concentrations of test compound or control solutions on day 2 of assay. On days 3 and 4, all assay wells were aspirated and fed with DMEM:F12 supplemented with 2% FCS and 100 ng/ml Activin A in the absence of both test compound or Wnt3a. Parallel negative control wells were maintained on days 3 and 4 in DMEM:F12 base medium with 2% FCS.
(§6) At the end of culture, cells in 96-well plates were washed twice with PBS then fixed with 4% paraformaldehyde at room temperature for 20 minutes, washed three times more with PBS, and then permeabilized with 0.5% Triton X-100 for 20 minutes at room temperature. After fixing and permeabilizing, cells were washed again three times with PBS and then blocked with 4% chicken serum (Invitrogen) in PBS for 30 minutes at room temperature. […]

[2] = tested on: Sox17 expression in human embryonic stem cell line H9; assay: Dose titration secondary assay: Sox17 intensity, H9
Experimental: as §1, §2, §3, §4, §5, §6

[3] = tested on: human embryonic stem cell line H1; assay: Dose titration secondary assay: cell number, H1; details: positive control (Wnt3a/Activin A) normalized to 1.000
Experimental: as §1, §2, §3, §4, §5, §6

[4] = tested on: Sox17 expression in human embryonic stem cell line H1; assay: Dose titration secondary assay: Sox17 intensity, H1
Experimental: as §1, §2, §3, §4, §5, §6

SMILES: O=C1NC(=O)C2=C1c1cn(c3ccccc13)CCOCCOCCN(Cc1cccc3ccccc13)CCn1cc2c2ccccc21 [Compound 136, 14-(Naphthalen-1-ylmethyl)-6,7,9,10,13,14,15,16-octahydro-12H,23H-5,26:17,22-di(metheno)dibenzo[k,q]pyrrolo[3,4-n][1,4,7,10,19]dioxatriazacyclohenicosine-23,25(24H)-dione]
- Cell number ([1]; 0.156 μM compound): 0.147
- Cell number ([1]; 0.313 μM compound): 0.192
- Cell number ([1]; 0.625 μM compound): 0.267
- Cell number ([1]; 1.25 μM compound): 0.334
- Cell number ([1]; 2.5 μM compound): 0.388
- Cell number ([1]; 5 μM compound): 0.320
- Cell number ([1]; 10 μM compound): 0.208
- Sox17 Intensity ([2]; 0.156 μM compound): 0.125
- Sox17 Intensity ([2]; 0.313 μM compound): 0.129
- Sox17 Intensity ([2]; 0.625 μM compound): 0.212
- Sox17 Intensity ([2]; 1.25 μM compound): 0.202
- Sox17 Intensity ([2]; 2.5 μM compound): 0.209
- Sox17 Intensity ([2]; 5 μM compound): 0.154
- Sox17 Intensity ([2]; 10 μM compound): 0.129
- Cell number ([3]; Conc 0.156 μM): 0.742
- Cell number ([3]; Conc 0.313 μM): 0.868
- Cell number ([3]; Conc 0.625 μM): 0.910
- Cell number ([3]; Conc 1.25 μM): 0.850
- Cell number ([3]; Conc 2.5 μM): 0.428
- Cell number ([3]; Conc 5 μM): 0.173
- Cell number ([3]; Conc 10 μM): 0.058
- Sox17 Intensity ([4]; 0.156 μM compound): 0.666
- Sox17 Intensity ([4]; 0.313 μM compound): 0.859
- Sox17 Intensity ([4]; 0.625 μM compound): 0.887
- Sox17 Intensity ([4]; 1.25 μM compound): 0.783
- Sox17 Intensity ([4]; 2.5 μM compound): 0.373
- Sox17 Intensity ([4]; 5 μM compound): 0.141
- Sox17 Intensity ([4]; 10 μM compound): 0.054
